Data: patent US20140005174A1, “INDOLE DERIVATIVES USEFUL AS CCR2 ANTAGONISTS” (priority 2011, published 2014)

target: T1, human CCR2 (Homo sapiens, UniProt P41597); test: CCR2 Membrane Binding Assay (SPA radio-ligand binding, 125I-rhMCP-1); conditions: membranes from Ba/F3 cells transfected with human CCR2; 0.03 nM 125I-rhMCP-1; 4 h room temperature
T1 construct: expressed in transfected cells; host or cells: Ba/F3 cells (membranes)
Description: The radio-ligand binding assay was done using scintillation proximity assay (SPA) technology. Briefly, membranes (1 μg per assay point) from Ba/F3 cells transfected with human CCR2, and wheat germ agglutinin-coated SPA beads (80 μg per point; Amersham, Arlington Heights,Ill.), were pre-incubated for 30 min at room temperature in CCR2 buffer (50 mM HEPES (pH=7.4), 10 mM MgCl2, 10 mM NaCl, 1 mM CaCL2, 0.1% BSA,10 μg/ml Saponin). At this point pre-bound SPA bead, membrane complex was incubated at room temperature for 4 h with varying concentrations of punitive CCR2 antagonists (in 1% DMSO, final) and 0.03 nM ^125I-rhMCP-1 in CCR2 Buffer (S.A. 2200 Ci/mmol, PerkinElmer Life and Analytical Science, Boston, Mass.; NEX332). Binding competition was measured using a 1450 Microbeta Trilux counter(Wallac, Gaithersburg, Md.). Binding constants (IC50 and slope) were calculated using GraphPad Prism software(GraphPad Software, Inc., La Jolla Calif.).

T1 sequence (P41597 whole entry): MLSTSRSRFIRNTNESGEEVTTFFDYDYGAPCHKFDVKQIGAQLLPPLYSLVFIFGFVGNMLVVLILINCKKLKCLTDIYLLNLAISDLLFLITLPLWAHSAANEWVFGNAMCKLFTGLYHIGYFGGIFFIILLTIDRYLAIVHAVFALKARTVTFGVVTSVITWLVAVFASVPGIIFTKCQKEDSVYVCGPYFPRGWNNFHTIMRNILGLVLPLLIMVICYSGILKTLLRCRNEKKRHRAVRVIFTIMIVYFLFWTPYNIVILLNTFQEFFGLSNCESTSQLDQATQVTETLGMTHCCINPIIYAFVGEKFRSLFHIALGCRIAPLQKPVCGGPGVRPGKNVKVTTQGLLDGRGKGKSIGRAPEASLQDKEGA

Question: How did the IC50 turn out when `CC(C)c1cc2ccc3[nH]c(C(=O)NC4CCN(CCN5CCCCCC5)CC4)cc3c2o1` [Compound 2] was run?
Answer: Its IC50 is 5.4 nM.

Question: How did the IC50 turn out when `O=C(NC1CCN(CCN2CCCCCC2)CC1)c1cc2c(ccc3cc(-c4ccccc4)oc32)[nH]1` [Compound 17] was run?
Answer: Its IC50 is 13 nM.

Question: For `CC(C)COc1cc2c(c3[nH]c(C(=O)NC4CCN(CCN5CCCCCC5)CC4)cc13)CCC2` [Compound 16], which IC50 is on record?
Answer: Its IC50 is 40 nM.

Question: How did the IC50 turn out when `O=C(NC1CCN(CCN2CCCCCC2)CC1)c1cc2c(OCc3ccccc3)cccc2[nH]1` [Compound 14] was run?
Answer: Its IC50 is 12.5 nM.

Question: `CC(C)COc1cccc2[nH]c(C(=O)NC3CCN(CCN4CCCCCC4)CC3)cc12` [Compound 10] was tested. Which IC50 did it give?
Answer: Its IC50 is 4 nM.

same assay, conditions: membranes from Ba/F3 cells transfected with human CCR2; 0.03 nM 125I-rhMCP-1; class symbols

Question: `COc1cccc2[nH]c(C(=O)NC3CCN(CCN4CCCCCC4)CC3)cc12` [Compound 12] was tested. Which IC50 did it give?
Answer: The IC50 was 201 to 900 nM.

Question: With `O=C(NC1[C@H]2CN(CCN3CCCCCC3)C[C@@H]12)c1cc2c(ccc3cc(-c4ccccc4)oc32)[nH]1` (stereo partly shown) [Compound 19] as the compound, how does the IC50 read?
Answer: Its IC50 is 51 to 200 nM.

Question: Which IC50 does the source give for `O=C(NC1CCN(CCN2CCCCCC2)CC1)c1cc2c(cc(F)c3ccoc32)[nH]1` [Compound 6] here?
Answer: The IC50 was 201 to 900 nM.

Question: How did the IC50 turn out when `CCOc1cc2[nH]c(C(=O)NC3CCN(CCN4CCCCCC4)CC3)cc2c2ccccc12` [Compound 20] was run?
Answer: The IC50 was 51 to 200 nM.

Question: How did the IC50 turn out when `CC(C)c1cc2ccc3[nH]c(C(=O)NC4CC45CCN(CCN4CCCCCC4)CC5)cc3c2o1` (stereo not shown) [Compound 15] was run?
Answer: Its IC50 is 51 to 200 nM.

Question: How did the IC50 turn out when `O=C(NC1CCN(CCN2CCCCCC2)CC1)c1cc2c3c(c(F)cc2[nH]1)CCO3` [Compound 7] was run?
Answer: Its IC50 is 201 to 900 nM.

Question: How did the IC50 turn out when `O=C(NC1CCN(CCN2CCCCCC2)CC1)c1cc2c3ccccc3ccc2n1Cc1ccccc1` [Compound 18] was run?
Answer: Its IC50 is 201 to 900 nM.

Question: `CC(C)c1cc2ccc3[nH]c(C(=O)N[C@H]4[C@@H]5CN(CCN6CCCCCC6)C[C@@H]54)cc3c2o1` [Compound 3] was tested. Which IC50 did it give?
Answer: Its IC50 is 51 to 200 nM.

Question: How did the IC50 turn out when `O=C(NC1CCN(CCN2CCCCC2)CC1)c1cc2c(cc(F)c3ccoc32)[nH]1` [Compound 13] was run?
Answer: Its IC50 is 201 to 900 nM.

Question: For `O=C(NC1CCN(CCN2CCCCCC2)CC1)c1cc2c(ccc3ccccc32)[nH]1` [Compound 4], which IC50 is on record?
Answer: Its IC50 is 51 to 200 nM.

Question: How did the IC50 turn out when `O=C(NC1CCN(CCN2CCCCCC2)CC1)c1cc2c(cc(F)c3ccccc32)[nH]1` [Compound 9] was run?
Answer: Its IC50 is 51 to 200 nM.

Question: With `COc1cc2[nH]c(C(=O)NC3CCN(CCN4CCCCCC4)CC3)cc2c2ccccc12` [Compound 11] as the compound, how does the IC50 read?
Answer: The IC50 was 201 to 900 nM.

Question: For `Cc1cc2ccc3[nH]c(C(=O)NC4CCN(CCN5CCCCCC5)CC4)cc3c2o1` [Compound 5], which IC50 is on record?
Answer: The IC50 was 51 to 200 nM.

Question: With `Cc1c(C(=O)NC2CCN(CCN3CCCCCC3)CC2)[nH]c2ccc3ccccc3c12` [Compound 8] as the compound, how does the IC50 read?
Answer: Its IC50 is 201 to 900 nM.
